Values after ≈ are worked out from the molar mass of the structure shown.
Assays:
Assay in all cases: In vitro antibacterial evaluation: minimum inhibitory concentration (MIC), broth dilution method
Assay type in all cases: cell-based
Staphylococcus sp. = details: for MIC Staphylococcus aureus (ATCC 29213): strain ATCC 29213; for MIC Staphylococcus aureus (GC 1131): strain GC 1131; for MIC Staphylococcus aureus (GC 4541): strain GC 4541; for MIC Staphylococcus aureus (GC 4542): strain GC 4542; for MIC Staphylococcus aureus-SMITH (GC 4543): strain GC 4543; for MIC Staphylococcus aureus (GC 4544): strain GC 4544; for MIC Staphylococcus aureus (GC 4545): strain GC 4545; for MIC Staphylococcus haemolyticus (GC 4546): strain GC 4546; for MIC Coagulase Negative Staphylococcus (GC 4547): strain GC 4547; for MIC Coagulase Negative Staphylococcus (GC 4548): strain GC 4548; for MIC Coagulase Negative Staphylococcus (GC 4549): strain GC 4549; for MIC Coagulase Negative Staphylococcus (GC 4551): strain GC 4551; for MIC Coagulase Negative Staphylococcus (ID-3941): strain ID-3941
Experimental: (§1) The minimum inhibitory concentration (MIC), the lowest concentration of the antibiotic which inhibits growth of the test organism, is determined by the broth dilution method using Muller-Hinton II […] (Baltimore Biological Laboratories) following the recommendations of the National Committee for Clinical Laboratory Standards [Methods for dilution antimicrobial susceptibility tests for bacteria that grow aerobically, approved standard M7-A2, National Committee for Clinical Laboratory Standards, Villanova, Pa].
(§2) An inoculum level of 5×10^5 CFU/mL, and a range of antibiotic concentrations (64-0.06 μg/mL) is used. […] The test organisms include a spectrum of Gram-positive bacteria comprised of Staphylococcus sp., Streptococcus sp. and Enterococcus sp. These organisms include recent clinical isolates that are resistant to methicillin, penicillin and/or vancomycin.

Escherichia coli = details: 5×10^5 CFU/mL, 18 hours at 35° C.
Experimental: as §1, §2

Enterococcus sp. = details: broth dilution, 5×10^5 CFU/mL, 18 hours at 35° C.
Experimental: as §1, §2

Streptococcus sp. = details: broth dilution, 5×10^5 CFU/mL, 18 hours at 35° C.
Experimental: as §1, §2

[1] = broth dilution, 18 hours at 35° C.

CCCCCCCC1OCC2OC(OC3C(CO)OC(Oc4ccc(CC5NC(=O)C(C(C)c6ccccc6)NC(=O)CNC(=O)C(CO)NC(=O)C(C(O)C6CNC(=N)N6C6OC(CO)C(O)C(O)C6O)NC(=O)C(C(O)C6CNC(=N)N6)NC5=O)cc4)C(O)C3O)C(O)C(O)C2O1 (stereo not drawn) [Example 109, Cyclo[glycyl-β-methylphenylalanyl-O-[4-O-(4,6-O-octylidenehexopyranosyl)hexopyranosyl]-tyrosyl-3-(2-iminoimidazoliclin-4-yl)seryl-3-(3-hexopyranosyl-2-iminoimidazolidin-4-yl)-serylseryl]]
MIC Staphylococcus aureus (ATCC 29213) (Staphylococcus sp.): 1 µg/mL (≈ 0.712 µM)
MIC Staphylococcus aureus (ATCC 29213) (Staphylococcus sp.; [1]): 1 µg/mL (≈ 0.712 µM)
MIC Staphylococcus aureus (GC 1131) (Staphylococcus sp.): 1 µg/mL (≈ 0.712 µM)
MIC Staphylococcus aureus (GC 1131) (Staphylococcus sp.; [1]): 1 µg/mL (≈ 0.712 µM)
MIC Staphylococcus aureus (GC 4541) (Staphylococcus sp.): 1 µg/mL (≈ 0.712 µM)
MIC Staphylococcus aureus (GC 4541) (Staphylococcus sp.; [1]): 1 µg/mL (≈ 0.712 µM)
MIC Staphylococcus aureus (GC 4542) (Staphylococcus sp.): 1 µg/mL (≈ 0.712 µM)
MIC Staphylococcus aureus (GC 4542) (Staphylococcus sp.; [1]): 1 µg/mL (≈ 0.712 µM)
MIC Staphylococcus aureus-SMITH (GC 4543) (Staphylococcus sp.; 18 hours at 35° C.): 1 µg/mL (≈ 0.712 µM)
MIC Staphylococcus aureus-SMITH (GC 4543) (Staphylococcus sp.; [1]): 1 µg/mL (≈ 0.712 µM)
MIC Staphylococcus aureus (GC 4544) (Staphylococcus sp.): 1 µg/mL (≈ 0.712 µM)
MIC Staphylococcus aureus (GC 4544) (Staphylococcus sp.; [1]): 1 µg/mL (≈ 0.712 µM)
MIC Staphylococcus aureus (GC 4545) (Staphylococcus sp.): 1 µg/mL (≈ 0.712 µM)
MIC Staphylococcus aureus (GC 4545) (Staphylococcus sp.; [1]): 1 µg/mL (≈ 0.712 µM)
MIC Staphylococcus haemolyticus (GC 4546) (Staphylococcus sp.): 1 µg/mL (≈ 0.712 µM)
MIC Staphylococcus haemolyticus (GC 4546) (Staphylococcus sp.; [1]): 1 µg/mL (≈ 0.712 µM)
MIC Coagulase Negative Staphylococcus (GC 4547) (Staphylococcus sp.): 1 µg/mL (≈ 0.712 µM)
MIC Coagulase Negative Staphylococcus (GC 4547) (Staphylococcus sp.; [1]): 1 µg/mL (≈ 0.712 µM)
MIC Coagulase Negative Staphylococcus (GC 4548) (Staphylococcus sp.): <0.5 µg/mL
MIC Coagulase Negative Staphylococcus (GC 4548) (Staphylococcus sp.; [1]): <0.5 µg/mL
MIC Coagulase Negative Staphylococcus (GC 4549) (Staphylococcus sp.): 1 µg/mL (≈ 0.712 µM)
MIC Coagulase Negative Staphylococcus (GC 4549) (Staphylococcus sp.; [1]): 1 µg/mL (≈ 0.712 µM)
MIC Coagulase Negative Staphylococcus (GC 4551) (Staphylococcus sp.): 1 µg/mL (≈ 0.712 µM)
MIC Coagulase Negative Staphylococcus (GC 4551) (Staphylococcus sp.; [1]): 1 µg/mL (≈ 0.712 µM)
MIC Coagulase Negative Staphylococcus (ID-3941) (Staphylococcus sp.): 1 µg/mL (≈ 0.712 µM)
MIC Coagulase Negative Staphylococcus (ID-3941) (Staphylococcus sp.; [1]): 1 µg/mL (≈ 0.712 µM)
MIC Escherichia coli (ATCC 25922) (Escherichia coli): 16 µg/mL (≈ 11.4 µM)
MIC Enterococccus avium (GC 4558) (Enterococcus sp.): 2 µg/mL (≈ 1.42 µM)
MIC Enterococccus faecalis (ATCC 29212) (Enterococcus sp.): 2 µg/mL (≈ 1.42 µM)
MIC Enterococccus faecalis (GC 4552) (Enterococcus sp.): 2 µg/mL (≈ 1.42 µM)
MIC Enterococccus faecalis (GC 4553) (Enterococcus sp.): 2 µg/mL (≈ 1.42 µM)
MIC Enterococccus faecalis (GC 4554) (Enterococcus sp.): 2 µg/mL (≈ 1.42 µM)
MIC Enterococccus faecium (GC 2243) (Enterococcus sp.): 1 µg/mL (≈ 0.712 µM)
MIC Enterococccus faecium (GC 4556) (Enterococcus sp.): 2 µg/mL (≈ 1.42 µM)
MIC Enterococccus faecium (GC 4557) (Enterococcus sp.): 1 µg/mL (≈ 0.712 µM)
MIC Enterococcus faecalis (GC 2242) (Enterococcus sp.): 2 µg/mL (≈ 1.42 µM)
MIC Streptococcus agalactiae (GC 4564) (Streptococcus sp.): <0.5 µg/mL
MIC Streptococcus pneumoniae (GC 4565) (Streptococcus sp.): <0.5 µg/mL
MIC Streptococcus pyogenes (ID-3187) (Streptococcus sp.): <0.5 µg/mL
